Measurements as given in patent US4024277A, “Phosphoro-aminosulfenyl derivatives of benzofuran carbamates” (priority 1975, dated 1977).

Key:
[1] = tested on: twospotted spider mite; experiment: Initial insecticidal activity, twospotted spider mite; assay type: in vivo, Tetranychus urticae Koch; conditions: Tetranychus urticae, 48-hour exposure, read-out: % Kill, Twospotted Spider Mite
Source text: (§1) a. Initial Insecticidal Activity
(§2) In this test, a candidate insecticide, in solution, is applied to either infested or uninfested plants or containers by spraying or dipping. (The preferred test procedure varies with insect species. The dipping method is better than the spraying method, and vice versa, for certain species of insects. Also some species are better adapted to the test by infesting after the chemical treatment rather than before.) Once the tests have been established, a 48-hour exposure period is observed before reading the tests. Insect species included in these tests are Mexican bean beetle (Epilachna varivestis Mulsant), pea aphid [Acyrthosiphon pisum (Harris)], southern armyworm [Spodoptera eridania (Cramer)], twospotted spider mite (Tetranychus urticae Koch), large milkweed bug [Oncopeltus fasciatus (Dallas)], plum curculio [Conotrachelus nenuphar (Herbst)], confused flour beetle (Tribolium confusum Jacquelin duVal) and granary weevil [Sitophilus granarius (Linnaeus)]. Test results are set forth in Table I. A control sample, comprising the solution without the candidate insecticide, is also included.

[2] = tested on: twospotted spider mite; experiment: Systemic insecticidal activity (soil/water), twospotted spider mite; assay type: in vivo, Tetranychus urticae Koch; conditions: Tetranychus urticae, 48-hour exposure, read-out: % Kill, Twospotted Spider Mite
Experimental: (§3) c. Systemic Insecticidal Acitivity (Soil/Water)
(§4) In this test, a candidate insecticide, in solution, is added to the soil of either uninfested pinto bean seedlings (Phaseolus vulgaris) or uninfested broad bean seedlings (Vicia faba var. Windsor). The plant species used depend on the insect species in the test. Usually, a 72-hour translocation period before infestation is required, followed by a 48-hour exposure period, before evaluation of the tests. The insect species used in the systemic tests are Mexican bean beetle, southern armyworm, pea aphid, and twospotted spider mite.

[3] = Mammalian toxicity, 14-day LD50 in rats; conditions: rat, in vivo, Wistar derived albino rats, method of Miller and Tainter
Source text: The compounds of this invention are characterized by advantageous mammalian toxicity values when compared with values for related compounds. This is shown by comparative values obtained with Wistar derived albino rats in 14-day tests. The animals were fed, housed and watered in accordance with standard laboratory procedures. The 14-day LD50 determination was estimated in accord with the method of Miller and Tainter (Experimental Biology and Medicine, 57, pp. 261-264, 1944).

[4] = tested on: southern armyworm; experiment: Seven-day residual insecticidal activity, southern armyworm; assay type: in vivo, Spodoptera eridania (Cramer); conditions: Spodoptera eridania, 48-hour exposure, read-out: % Kill, Southern Armyworm
Source text: (§5) b. Seven-Day Residual Insecticidal Activity
(§6) In this test, a candidate insecticide, in solution, is applied to uninfested plants or containers by dipping or spraying. A seven-day holding period is necessary before infestation. A 48-hour exposure period is observed before evaluation of the tests. The insect species used in this type of test are the same as those listed under initial activity.

[5] = tested on: German cockroaches; experiment: Level I immersion test, German cockroaches; assay type: in vivo, Blattella germanica (Linnaeus); conditions: GC (male), 5 mg/milliliter; for mortality at 5000 µg/mL: Blattella germanica, 18-24 hours, read-out: % Kill; for % Knockdown: 30 minutes after immersion
Experimental: (§7) e. Insecticidal Activity Against House Flies and German Cockroaches
Compounds of this invention were tested in a Level I test at 5 mg. of active compounds/milliliter of a solution of 40% acetone -- 60% water.
In this test a group of ten house flies (Musca domestica Linnaeus) were completely immersed in 25 ml. of the insecticidal test solution. After 10 seconds of immersion, the test solution is removed. The house flies are then transferred to holding cages lines with paper toweling. In the case of the house flies, the knockdown counts were recorded 10 minutes after termination of the immersion. The percent kill was recorded after 18-24 hours.
The same Level I test technique was employed using male German cockroaches [Blattella germanica (Linnaeus)]. In this case, the knockdown counts were recorded 30 minutes after the termination of the immersion.

[6] = tested on: southern armyworm; experiment: Systemic insecticidal activity (soil/water), southern armyworm; assay type: in vivo, Spodoptera eridania (Cramer); conditions: Spodoptera eridania, 48-hour exposure, read-out: % Kill, Southern Armyworm
Experimental: as §3, §4

[7] = tested on: female house flies (resistant); experiment: Level II topical test, house flies; assay type: in vivo, Musca domestica Linnaeus; conditions: HF (female, resistant), one microgram topically per insect; for % Knockdown: 10 minutes; for mortality at 0.001 mg: Musca domestica, topical, read-out: % Kill
Experimental: as §7
In a Level II test the compounds of this invention were tested for insecticidal activity against female house flies (resistant) and male German cockroaches. Ten insects were anesthetized with carbon dioxide and placed in a container for about 2 hours, during which time the insects recovered to normal activity. The container confining the insects is fitted with a plunger which is used to force the insects against a nylon mesh at one end of the container. One microliter of an acetone solution containing one microgram of the candidate insecticide was applied topically to each insect. The plunger was withdrawn and the insects were allowed to move freely about the container. Knockdown counts were recorded 10 minutes after treatment of house flies and 30 minutes after treatment of cockroaches.

[8] = tested on: granary weevil; experiment: Initial insecticidal activity, granary weevil; assay type: in vivo, Sitophilus granarius (Linnaeus); conditions: Sitophilus granarius, 48-hour exposure, read-out: % Kill, Granary Weevil
Source text: as §1, §2

[9] = tested on: large milkweed bug; experiment: Initial insecticidal activity, milkweed bug; assay type: in vivo, Oncopeltus fasciatus (Dallas); conditions: Oncopeltus fasciatus, 48-hour exposure, read-out: % Kill, Milkweed Bug
Source text: as §1, §2

[10] = tested on: granary weevil; experiment: Seven-day residual insecticidal activity, granary weevil; assay type: in vivo, Sitophilus granarius (Linnaeus); conditions: Sitophilus granarius, 48-hour exposure, read-out: % Kill, Granary Weevil
Source text: as §5, §6

[11] = tested on: southern armyworm; experiment: Initial insecticidal activity, southern armyworm; assay type: in vivo, Spodoptera eridania (Cramer); conditions: Spodoptera eridania, 48-hour exposure, read-out: % Kill, Southern Armyworm
Source text: as §1, §2

Structure (SMILES)	mortality at 39 ppm [1] [%]	mortality at 156 ppm [1] [%]	mortality at 1250 ppm [1] [%]	mortality at 39 ppm [2] [%]	mortality at 156 ppm [2] [%]	LD50 at 336 h [3] [mg/kg]	mortality at 39 ppm [4] [%]	mortality at 156 ppm [4] [%]	mortality at 1250 ppm [4] [%]	mortality at 5000 µg/mL [5] [%]	% Knockdown [5] [%]	mortality at 39 ppm [6] [%]	mortality at 156 ppm [6] [%]	% Knockdown [7] [%]	mortality at 0.001 mg [7] [%]	mortality at 39 ppm [8] [%]	mortality at 156 ppm [8] [%]	mortality at 1250 ppm [8] [%]	mortality at 39 ppm [9] [%]	mortality at 156 ppm [9] [%]	other results
CCOP(=O)(OCC)N(C)SN(C)C(=O)Oc1cccc2c1OC(C)(C)C2 [Example 1(c), 2,3-dihydro-2,2-dimethyl-7-benzofuranyl [(N-diethoxyphosphinyl) (N-methyl)-aminosulfenyl][methyl]carbamate]	21	37	100	2	8	146	0	5	95	100	100	0	92	0	20	30	100	100	100	100	mortality at 1250 ppm [9]: 100%; mortality at 39 ppm ([10]; 39 ppm): 8%; mortality at 156 ppm ([10]; 156 ppm): 97%; mortality at 1250 ppm ([10]; 1250 ppm): 100%; mortality at 39 ppm [11]: 6%; mortality at 156 ppm [11]: 20%; mortality at 1250 ppm [11]: 95%
CCCOP(=O)(OCCC)N(C)SN(C)C(=O)Oc1cccc2c1OC(C)(C)C2 [2(d), 2,3-dihydro-2,2-dimethyl-7-benzofuranyl [(N-di-n-propoxyphosphinyl) (N-methyl)aminosulfenyl][methyl]carbamate]	39	91	100	2	18	152	0	0	60	100	100	94	100	0	40	88	100	100	100	100	mortality at 10 ppm ([2]; 10 ppm): 0%; mortality at 10 ppm ([6]; 10 ppm): 0%; mortality at 1250 ppm [9]: 100%; mortality at 39 ppm [11]: 0%; mortality at 156 ppm [11]: 54%; mortality at 1250 ppm [11]: 100%
